Assay results published in EPA's ToxRefDB 2.

Experiments:
rat [1] = settings: Subchronic oral toxicity in rodents, sprague dawley, Gavage/Intubation, dose end: 90 day, group: systemic
rat [2] = settings: Developmental neurotoxicity study, sprague dawley, Oral, Gavage/Intubation, dose end: 72 PND, group: cannot be grouped
rat [3] = settings: Subchronic oral toxicity in rodents, Sprague Dawley, Feed, dose end: 14 week, group: systemic
rat [4] = settings: Combined chronic toxicity/carcinogenicity, Crl: CD (SD) IGS BR, Oral, Feed, dose end: 104 week, group: systemic
rat [5] = settings: Multigenerational reproductive toxicity study, sprague dawley, Oral, Gavage/Intubation, dose end: 2 generation
rat [6] = settings: Subchronic oral toxicity in rodents, sprague dawley, Feed, dose end: 90 day, group: systemic, systemic / in life observation / body weight / body weight gain + systemic / in life observation / food consumption / food consumption + …
mouse [7] = settings: Carcinogenicity, cd1, Oral, Feed, dose end: 78 week, group: systemic
mouse [8] = settings: Subchronic oral toxicity in rodents, cd1, Feed, dose end: 90 day, group: systemic
rat [9] = settings: Combined chronic toxicity/carcinogenicity, sprague dawley, Oral, Feed, dose end: 104 week, group: systemic
rabbit [10] = settings: Prenatal developmental toxicity study, other, Oral, Gavage/Intubation, dose end: 27 GD
dog = settings: Chronic toxicity; beagle; Oral; Capsule; dose end: 12 month; group: systemic; systemic / clinical chemistry / alkaline phosphatase (alp/alk) / alkaline phosphatase (alp/alk) + systemic / organ weight / liver / absolute…
rat [11] = settings: Multigenerational reproductive toxicity study, sprague dawley, Oral, Feed, dose end: 2 generation
rat [12] = settings: Subchronic oral toxicity in rodents, fischer, Feed, dose end: 13 week, group: systemic
mouse [13] = settings: Subchronic oral toxicity in rodents, b6c3f1, Feed, dose end: 13 week, group: systemic
rat [14] = settings: Carcinogenicity, fischer, Oral, Feed, dose end: 105 week, group: systemic
mouse [15] = settings: Carcinogenicity, b6c3f1, Oral, Feed, dose end: 105 week, group: systemic
rat [16] = settings: Prenatal developmental toxicity study, sprague dawley, Oral, Gavage/Intubation, dose end: 17 GD
rabbit [17] = settings: Prenatal developmental toxicity study, new zealand white, Oral, Gavage/Intubation, dose end: 18 GD, group: maternal
[18] = systemic / pathology microscopic / stomach / acanthosis + systemic / pathology microscopic / stomach / hyperkeratosis + systemic / clinical …
[19] = systemic / in life observation / body weight / body weight + systemic / in life observation / body weight / body weight gain + systemic / in…
[20] = systemic / clinical chemistry / aspartate aminotransferase (ast/sgot) / aspartate aminotransferase (ast/sgot) + systemic / clinical …
[21] = systemic / in life observation / body weight / body weight + systemic / organ weight / liver / relative to body weight + systemic / …
[22] = group: offspring, developmental / developmental landmark / eye opening / eye opening + developmental / developmental landmark / pinna unfolding / pinna …
[23] = group: parental, systemic / in life observation / body weight / body weight + systemic / in life observation / body weight / body weight gain + systemic / in…
[24] = group: reproductive, reproductive / offspring survival early / litter viability other / total litter loss
[25] = group: reproductive, reproductive / reproductive performance / gestational length / gestational length + reproductive / reproductive performance / implantations…
[26] = systemic / clinical chemistry / triglycerides / triglycerides
[27] = systemic / in life observation / body weight / body weight + systemic / in life observation / body weight / body weight gain + systemic / …
[28] = systemic / pathology microscopic / mammary gland / adenoacanthoma
[29] = group: developmental, systemic / in life observation / body weight / fetal weight
[30] = group: maternal, reproductive / reproductive performance / aborted / aborted + reproductive / reproductive performance / premature delivery / premature …
[31] = group: offspring, systemic / in life observation / body weight / offspring (pup) weight + systemic / in life observation / body weight / offspring (pup) …
[32] = systemic / in life observation / body weight / body weight gain
[33] = systemic / in life observation / food consumption / food consumption + systemic / organ weight / brain / absolute + systemic / organ weight…
[34] = systemic / pathology microscopic / blood / leukemia mononuclear + systemic / pathology microscopic / esophagus / squamous cell papilloma + …
[35] = systemic / pathology microscopic / mammary gland / fibroadenoma + systemic / pathology microscopic / oral mucosa / squamous cell papilloma…
[36] = systemic / pathology microscopic / blood vessel / [other] + systemic / in life observation / clinical signs / [other] + systemic / in life …
[37] = group: maternal, systemic / in life observation / body weight / body weight gain + systemic / in life observation / food consumption / food consumption
[38] = systemic / in life observation / body weight / body weight + systemic / in life observation / clinical signs / soft stools + systemic / in …

`C1CN(CN2CCOCC2)CCO1` [4,4-Methylenedimorpholine] gave an LOAEL (rat [1]; systemic / pathology microscopic / stomach / acanthosis + systemic / pathology microscopic / stomach / hyperkeratosis) of 50 mg/kg/day, an NEL (rat [1]; [18]) of 15 mg/kg/day and an NOAEL (rat [1]; [18]) of 15 mg/kg/day. The LEL (rat [1]; systemic / pathology microscopic / stomach / acanthosis + systemic / pathology microscopic / stomach / hyperkeratosis + systemic / in life …) was 50 mg/kg/day.

`O=S(=O)([O-])C(F)(F)C(F)(F)C(F)(F)C(F)(F)C(F)(F)C(F)(F)C(F)(F)C(F)(F)F.[K+]` [PFOS-K] gave an LOAEL (rat [2]; systemic / in life observation / body weight / body weight) of 1 mg/kg/day, an LEL (rat [2]; [19]) of 1 mg/kg/day and an NEL (rat [2]; [19]) of 0.3 mg/kg/day. For the same compound, the NOAEL (rat [2]; [19]) was 0.3 mg/kg/day, the NEL (rat [3]; systemic / clinical chemistry / alanine aminotransferase (alt/sgpt) / alanine aminotransferase (alt/sgpt) + systemic / clinical chemistry / …) was 0.1 mg/kg/day and the LOAEL (rat [3]; [20]) was over 1 mg/kg/day. For the same compound, the NOAEL (rat [3]; [20]) was at least 1 mg/kg/day, the LEL (rat [3]; systemic / pathology microscopic / liver / hypertrophy + systemic / pathology microscopic / liver / vacuolization) was 0.25 mg/kg/day and the LOAEL (rat [4]; [21]) was over 1 mg/kg/day. For the same compound, the NOAEL (rat [4]; [21]) was at least 1 mg/kg/day, the NEL (rat [4]; systemic / pathology microscopic / liver / adenoma + systemic / in life observation / body weight / body weight + systemic / organ weight / …) was 0.025 mg/kg/day and the LEL (rat [4]; systemic / pathology microscopic / liver / degeneration + systemic / pathology microscopic / liver / eosinophilic focus) was 0.1 mg/kg/day. The LEL (rat [5]; [22]) was 1.6 mg/kg/day, the LOAEL (rat [5]; [22]) was over 3.2 mg/kg/day and the NEL (rat [5]; [22]) was 0.4 mg/kg/day. For the same compound, the NOAEL (rat [5]; [22]) was at least 3.2 mg/kg/day, the LOAEL (rat [5]; [23]) was over 3.2 mg/kg/day and the NEL (rat [5]; [23]) was 0.1 mg/kg/day. The NOAEL (rat [5]; [23]) was at least 3.2 mg/kg/day, the LEL (rat [5]; group: parental, systemic / in life observation / body weight / body weight gain) was 0.4 mg/kg/day and the LEL (rat [5]; [24]) was 1.6 mg/kg/day. For the same compound, the NEL (rat [5]; [24]) was 0.4 mg/kg/day, the LOAEL (rat [5]; [25]) was over 3.2 mg/kg/day and the NOAEL (rat [5]; [25]) was at least 3.2 mg/kg/day.

`FC(F)(F)c1ccc(OCCCOc2c(Cl)cc(OCC=C(Cl)Cl)cc2Cl)nc1` [Pyridalyl] gave an LEL (rat [6]) of 56 mg/kg/day, an LOAEL (rat [6]) of 56 mg/kg/day and an NEL (rat [6]) of 5.56 mg/kg/day. For the same compound, the NOAEL (rat [6]) was 5.56 mg/kg/day, the LEL (mouse [7]; systemic / hematology / mean corpuscular (cell) volume (mcv) / mean corpuscular (cell) volume (mcv)) was 5.04 mg/kg/day and the NEL (mouse [7]; systemic / hematology / mean corpuscular (cell) volume (mcv) / mean corpuscular (cell) volume (mcv) + systemic / hematology / lymphocyte / …) was 1.57 mg/kg/day. For the same compound, the LOAEL (mouse [7]; [19]) was 99 mg/kg/day, the NOAEL (mouse [7]; [19]) was 4.78 mg/kg/day and the LEL (mouse [8]; [26]) was 9.5 mg/kg/day. The NEL (mouse [8]; [26]) was under 9.5 mg/kg/day, the LOAEL (mouse [8]; [27]) was 378 mg/kg/day and the NOAEL (mouse [8]; [27]) was 81.7 mg/kg/day. It also gave an LOAEL (rat [9]; [19]) of 17.1 mg/kg/day, an NOAEL (rat [9]; [27]) of 3.4 mg/kg/day and an LEL (rat [9]; [28]) of 1.23 mg/kg/day. It also gave an NEL (rat [9]; [28]) of under 1.23 mg/kg/day, an LEL (rabbit [10]; [29]) of 150 mg/kg/day and an LOAEL (rabbit [10]; [29]) of 150 mg/kg/day. For the same compound, the NEL (rabbit [10]; [29]) was 50 mg/kg/day, the NOAEL (rabbit [10]; [29]) was 50 mg/kg/day and the LEL (rabbit [10]; [30]) was 150 mg/kg/day. It also gave an LOAEL (rabbit [10]; [30]) of 150 mg/kg/day, an NEL (rabbit [10]; [30]) of 50 mg/kg/day and an NOAEL (rabbit [10]; [30]) of 50 mg/kg/day. For the same compound, the LEL (dog) was 80 mg/kg/day, the LOAEL (dog) was over 80 mg/kg/day and the NEL (dog) was 20 mg/kg/day. For the same compound, the NOAEL (dog) was at least 80 mg/kg/day, the LOAEL (rat [11]; [31]) was 83.7 mg/kg/day and the NEL (rat [11]; [31]) was 3.4 mg/kg/day. For the same compound, the NOAEL (rat [11]; [31]) was 17 mg/kg/day, the LEL (rat [11]; group: offspring, systemic / organ weight / thymus / nos) was 17 mg/kg/day and the LOAEL (rat [11]; [23]) was 68.7 mg/kg/day. It also gave an NOAEL (rat [11]; [23]) of 13.8 mg/kg/day, an LEL (rat [11]; group: parental, systemic / organ weight / testes / absolute) of 17 mg/kg/day and an NEL (rat [11]; group: parental, systemic / organ weight / testes / absolute + systemic / in life observation / body weight / body weight + systemic / in life observation / …) of 3.4 mg/kg/day.

Work on `OCC(CO)(CBr)CBr` [2,2-Bis(bromomethyl)-1,3-propanediol] yielded an LOAEL (rat [12]; [27]) of 400 mg/kg/day, an NOAEL (rat [12]; [27]) of 200 mg/kg/day and an LEL (rat [12]; [32]) of 100 mg/kg/day. For the same compound, the NEL (rat [12]; [32]) was under 100 mg/kg/day, the LOAEL (mouse [13]; [27]) was 500 mg/kg/day and the NOAEL (mouse [13]; [27]) was 200 mg/kg/day. The LEL (mouse [13]; [33]) was 100 mg/kg/day, the NEL (mouse [13]; [33]) was under 100 mg/kg/day and the LOAEL (rat [14]; [34]) was over 430 mg/kg/day. For the same compound, the NOAEL (rat [14]; [34]) was at least 430 mg/kg/day, the LEL (rat [14]; [35]) was 100 mg/kg/day and the NEL (rat [14]; [35]) was under 100 mg/kg/day. It also gave an LEL (mouse [15]; [36]) of 35 mg/kg/day, an NEL (mouse [15]; [36]) of under 35 mg/kg/day and an LOAEL (mouse [15]; systemic / pathology microscopic / lung / hyperplasia) of 80 mg/kg/day. It also gave an NOAEL (mouse [15]; systemic / pathology microscopic / lung / hyperplasia + systemic / pathology microscopic / blood vessel / [other] + systemic / pathology …) of 40 mg/kg/day.

`CC(C)n1cc2c3c(cccc31)[C@H]1C[C@@H](C(=O)NC3CCCCC3)CN(C)[C@@H]1C2` [Amesergide] was tested, and the LEL (rat [16]; [29]) was 30 mg/kg/day, the LOAEL (rat [16]; [29]) was over 30 mg/kg/day and the NEL (rat [16]; [29]) was 10 mg/kg/day. For the same compound, the NOAEL (rat [16]; [29]) was at least 30 mg/kg/day, the LEL (rat [16]; [37]) was 30 mg/kg/day and the LOAEL (rat [16]; [37]) was over 30 mg/kg/day. It also gave an NEL (rat [16]; [37]) of 10 mg/kg/day, an NOAEL (rat [16]; [37]) of at least 30 mg/kg/day and an LOAEL (rabbit [17]; [38]) of over 15 mg/kg/day. The NEL (rabbit [17]; [38]) was 0.2 mg/kg/day, the NOAEL (rabbit [17]; [38]) was at least 15 mg/kg/day and the LEL (rabbit [17]; systemic / in life observation / food consumption / food consumption) was 2 mg/kg/day.
